This experiment deals with Mitogen-activated protein kinase 10 (Homo sapiens, UniProt P53779). Description: Binding affinity to JNK3 (unknown origin) by surface plasmon resonance analysis in presence of ATP. For orientation: In SPR one partner is held on a chip, and binding of the other changes the refractive index at the surface.

The structures appear in SMILES notation.

Mitogen-activated protein kinase 10, sequence (P53779 whole entry): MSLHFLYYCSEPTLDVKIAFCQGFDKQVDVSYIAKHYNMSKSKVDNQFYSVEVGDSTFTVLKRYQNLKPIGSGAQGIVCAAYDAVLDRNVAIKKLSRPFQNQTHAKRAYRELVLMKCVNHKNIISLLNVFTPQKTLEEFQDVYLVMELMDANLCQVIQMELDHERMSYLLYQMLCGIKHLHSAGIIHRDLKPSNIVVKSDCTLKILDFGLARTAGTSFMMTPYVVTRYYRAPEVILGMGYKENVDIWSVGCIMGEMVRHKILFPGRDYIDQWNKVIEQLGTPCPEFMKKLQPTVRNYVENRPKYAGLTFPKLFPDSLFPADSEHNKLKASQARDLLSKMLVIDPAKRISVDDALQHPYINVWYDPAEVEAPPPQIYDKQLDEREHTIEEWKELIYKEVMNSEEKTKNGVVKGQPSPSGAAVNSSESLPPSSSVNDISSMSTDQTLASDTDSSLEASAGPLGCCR

With `Oc1ccc2c(c1)nc(-c1ccc3ccccc3c1)n2-c1ccnc(NC2CCOCC2)n1`, the Kd (read-out: Kd) amounted to 1.66 µM and the Kd (read-out: pKd (converted)) is 1.66 µM.
Consider `Oc1ccc2nc(-c3ccc4ccccc4c3)n(-c3ccnc(NC4CCOCC4)n3)c2c1`, for which the Kd runs as follows: (read-out: Kd) 6 µM; (read-out: pKd (converted)) 6.03 µM.
In the same order, the values of `O=C(C1CC1)N1CCC[C@@H](Nc2nccc(-n3c(-c4ccc5ccccc5c4)nc4cc(O)ccc43)n2)C1` are 2.65 µM and 2.63 µM.
The corresponding values for `c1ccc2cc(-c3nc4ccccc4n3-c3ccnc(NC4CCCCC4)c3)ccc2c1` are 5.26 µM and 5.25 µM.
Take `c1ccc2cc(-c3nc4ccccc4n3-c3ccnc(NC4CCOCC4)c3)ccc2c1`: the Kd was 4.65 µM (read-out: Kd) and 4.68 µM (read-out: pKd (converted)).
The corresponding values for `C[C@H](O)CNc1cc(-n2c(-c3ccc4ccccc4c3)nc3ccccc32)ccn1` are 12.7 µM and 12.6 µM.
In the same order, the values of `COc1ccc2c(c1)nc(-c1ccc3ccccc3c1)n2-c1ccnc(NC2CCCCC2)c1` are 176 µM and 178 µM.
As for `COc1ccc2c(c1)nc(-c1ccc(Cl)c(Cl)c1)n2-c1ccnc(NC2CCCCC2)c1`, the Kd is 18.1 µM (read-out: Kd) and 18.2 µM (read-out: pKd (converted)).
The corresponding values for `O=C(C1CC1)N1CCC[C@@H](Nc2cc(-n3c(-c4ccc5ccccc5c4)nc4ccccc43)ccn2)C1` are 10.7 µM and 10.7 µM.
The corresponding values for `Oc1ccc2c(c1)nc(-c1ccc3ccccc3c1)n2-c1ccnc(NC2CCCCC2)c1` are 24.5 µM and 24.5 µM.
The corresponding values for `Oc1ccc2c(c1)nc(-c1ccc3ccccc3c1)n2-c1ccnc(NC2CCOCC2)c1` are 10 µM and 10 µM.
As for `Oc1ccc2c(c1)nc(-c1ccc3ccccc3c1)n2-c1ccnc(N[C@@H]2CCCNC2)c1`, the Kd was 6.05 µM (read-out: Kd) and 6.03 µM (read-out: pKd (converted)).
In the same order, the values of `O=C(C1CC1)N1CCC[C@@H](Nc2cc(-n3c(-c4ccc5ccccc5c4)nc4cc(O)ccc43)ccn2)C1` are 27.7 µM and 27.5 µM.
The corresponding values for `O=C(C1CC1)N1CCC[C@@H](Nc2cc(-n3c(-c4cccc(O)c4)nc4ccccc43)ccn2)C1` are 2.64 µM and 2.63 µM.
For the compound `C[C@H](O)CNc1cc(-n2c(-c3cccc(O)c3)nc3ccccc32)ccn1`, the Kd (read-out: Kd) was found to be 19.1 µM and the Kd (read-out: pKd (converted)) is 19.1 µM.
Regarding `Oc1ccc2c(c1)nc(-c1ccc(Cl)c(Cl)c1)n2-c1ccnc(NC2CCCCC2)c1`, the Kd (read-out: Kd) was determined as 13.8 µM and the Kd (read-out: pKd (converted)) is 13.8 µM.
Turning to `c1ccc2cc(-c3nc4ccccc4n3-c3ccnc(NC4CCCCC4)n3)ccc2c1`, the Kd by setting is: (read-out: Kd) 1.75 µM; (read-out: pKd (converted)) 1.74 µM.
The corresponding values for `c1ccc2cc(-c3nc4ccccc4n3-c3ccnc(NC4CCOCC4)n3)ccc2c1` are 2.33 µM and 2.34 µM.
Take `COc1ccc2c(c1)nc(-c1ccc3ccccc3c1)n2-c1ccnc(NC2CCCCC2)n1`: the Kd runs as follows: (read-out: Kd) 0.743 µM; (read-out: pKd (converted)) 0.741 µM.
The corresponding values for `COc1ccc2nc(-c3ccc4ccccc4c3)n(-c3ccnc(NC4CCCCC4)n3)c2c1` are 1.77 µM and 1.74 µM.
The corresponding values for `Clc1ccc(-c2nc3ccccc3n2-c2ccnc(NC3CCOCC3)n2)cc1Cl` are 21.8 µM and 21.9 µM.
In the same order, the values of `c1ccc2cc(-c3nc4ccccc4n3-c3ccnc(N[C@@H]4CCCNC4)n3)ccc2c1` are 2.98 µM and 2.95 µM.
For `O=C(C1CC1)N1CCC[C@@H](Nc2nccc(-n3c(-c4ccc5ccccc5c4)nc4ccccc43)n2)C1`, the Kd by setting is: (read-out: Kd) 1.93 µM; (read-out: pKd (converted)) 1.95 µM.
In the same order, the values of `COc1ccc2c(c1)nc(-c1ccc3ccccc3c1)n2-c1ccnc(N[C@@H]2CCCN(C(=O)C3CC3)C2)n1` are 2.91 µM and 2.88 µM.
In the case of `COc1ccc2nc(-c3ccc4ccccc4c3)n(-c3ccnc(N[C@@H]4CCCN(C(=O)C5CC5)C4)n3)c2c1`, the Kd by setting is: (read-out: Kd) 1.17 µM; (read-out: pKd (converted)) 1.17 µM.
Consider `O=C(C1CC1)N1CCC[C@@H](Nc2nccc(-n3c(-c4ccc(Cl)c(Cl)c4)nc4ccccc43)n2)C1`, for which the Kd was 7.69 µM (read-out: Kd) and 7.76 µM (read-out: pKd (converted)).
In the same order, the values of `Oc1ccc2c(c1)nc(-c1ccc3ccccc3c1)n2-c1ccnc(NC2CCCCC2)n1` are 1.89 µM and 1.91 µM.
Consider `Oc1ccc2nc(-c3ccc4ccccc4c3)n(-c3ccnc(NC4CCCCC4)n3)c2c1`, for which the Kd was 31.7 µM (read-out: Kd) and 31.6 µM (read-out: pKd (converted)).

Source of the values: ChEMBL document CHEMBL2331452, “3D-QSAR studies of 1,2-diaryl-1H-benzimidazole derivatives as JNK3 inhibitors with protective effects in neuronal cells” (Bioorg Med Chem Lett, 2013).
